PMC11943016, “TBG096 Ameliorates Memory Deficiency in AD Mouse Model via Promoting Neurogenesis and Regulation of Hsc70/HK2/PKM2/LAMP2A Signaling Pathway” (International Journal of Molecular Sciences, 2025)

Experiments:
Type in all cases: in vivo
gut microbiota = assay: Gut microbiota analysis in HFD-induced AD mice; settings: Met 140 mg/kg
Excerpt: (§1) In experiments with the HFD-induced AD mouse model, a total of 60 Institute of Cancer Research (ICR) male mice aged 4 weeks from Zhejiang Academy of Medical Sciences (Hangzhou, China) were used for animal experiments (permit number: ZJU20230121). The animals were provided free access to a chow diet and water. […] The HFD and normal diet were alternated every two days to maintain freshness. Weekly measurements were taken for water intake, food intake, and body weight. In the eighteenth week, the mice underwent Y-maze and NOR tests. The Morris water maze test was conducted during the nineteenth week. After confirming the successful establishment of the AD model characterized by cognitive impairment, oral administration of treatments commenced. […] Each group had 10 mice.

HFD-induced AD mice [1] = assay: Neurogenesis: NeuN/BrdU double staining in HFD-induced AD mice; settings: 5 mg/kg, vs HFD-only
Procedure: In order to investigate the effect of TBG096 on promoting neuronal regeneration, animal experiments were carried out according to the method previously reported. Fifteen 4-week-old ICR male mice purchased from Zhejiang Academy of Medical Sciences (Hangzhou, China) were randomly divided into three groups, namely the (i) normal control group, (ii) HFD group, and (iii) HFD + TBG096 5 mg/kg group, and given a normal diet or high-fat diet for two months to construct the AD mouse model, respectively. After confirming the successful construction of the AD model, TBG096 was administered once a day at a dose of 5 mg/kg for 1 month, and soybean oil was used as a vehicle. BrdU was then injected into the mice at a dose of 100 mg/kg in four injections over two days, each 12 h apart. Administration of TBG096 was continued for 28 days. At the end of animal experiments, the mice were anesthetized and cardiac […]. The brains of mice were taken, fixed, and sectioned, and immunostaining was performed with NeuN and BrdU antibodies.
At the end of animal experiments, three mice in each group were taken for heart perfusion with cold PBS and 4% paraformaldehyde. After that, the brains of mice were fixed with 4% paraformaldehyde for 24 h and gradually dehydrated with 15% and 30% sucrose solutions for 48 h, respectively. […]

HFD-induced AD mice [2] = assay: Immunofluorescence staining of brain tissue of HFD-induced AD mice
Excerpt: as §1
At the end of animal experiments, three mice in each group were taken for heart perfusion with cold PBS and 4% paraformaldehyde. After that, the brains of mice were fixed with 4% paraformaldehyde for 24 h and gradually dehydrated with 15% and 30% sucrose solutions for 48 h, respectively. The fixed and embedded brain sample was placed in a cryostat and cut into 20 µm thick slices with a cryostat (Thermo Fisher, Waltham, MA, USA), and brain slices in the hippocampus and cortex were collected. Finally, the brain slices were placed in antifreeze (glycerol/ethylene/PBS = 3:3:4) and kept in a refrigerator at −30 °C until immunostaining. The brain slices were fixed on a glass slide and hydrated with PBS for 5 min. Then, blocking buffer was added to the brain slices and incubated at room temperature for 1 h. Brain slices were washed twice with PBS and incubated with anti-NeuN, anti-BrdU, anti-Iba1, anti-GFAP, anti-INOS, anti-APP, or anti-p-Tau at 4 °C for 24 h, respectively. Subsequently, the brain slices were incubated with secondary antibody (goat anti-rabbit IgG H&L (Alexa Fluor® 488) or rabbit anti-mouse IgG (Cy3 conjugate)) at room temperature for 2 h after washing with PBS three times. Finally, a cover glass was used to lightly cover the slices stained with DAPI. […] Biomarker proteins in the cerebral cortex and hippocampus were digitized by Image J software (National Institutes of Health, Bethesda, MD, USA).

[3] = system: Wnt gene family (Wnt10b, Wnt5a, and Wnt1); assay: Transcriptome sequencing and qRT-PCR of brain samples of HFD-induced AD mice; settings: GSEA-GO, qRT-PCR confirmed Wnt10b and Wnt5a
Procedure: Total RNA was extracted and quantified from 50 mg of the cerebral cortex using TRIzol reagent (Invitrogen, Carlsbad, CA, USA) and NanoDrop (Thermo Fisher Scientific, Waltham, MA, USA), respectively. Subsequently, 2.5 µg of RNA from each sample was reverse-transcribed using a HiFi-MMLV cDNA kit (Cowin Biotechnology Company, Beijing, China). Transcripts were quantified by PCR analysis performed with a CFX 96 Touch (Bio-Rad, Hercules, CA, USA) and SYBR Premixed EX Taq (Takara, Otsu, Japan). PCR was performed under the following conditions: 95 °C for 2 min, followed by 40 cycles, 94 °C for 15 s, 60 °C for 25 s, and 72 °C for 10 s. All results were normalized to the level of 18S RNA, and the relative mRNA transcription levels were estimated by 2^−ΔΔCT. The number of animal samples in each group was five, and all samples were run in triplicate, and their average values were calculated. The mouse primers of Wnt10b (NM_011718.2), Wnt5a (NM_001256224.2), and 18S RNA (NR_003278.3) were synthesized by Sangon Biotech Co., Ltd. (Shanghai, China), and their sequences are as follows: Wnt10b-sense: 5′-[…]-3′; antisense: 5′-[…]-3′. Wnt5a-sense: 5′-[…]-3′; antisense: 5′-[…]-3′. 18S-sense: 5′-[…]-3; antisense: 5′-[…]-3′.
After extracting total RNA (5 µg) from cerebral cortex samples, mRNA was purified using Dynabeads Oligo(dT) (Thermo Fisher, Waltham, MA, USA), involving two purification steps. […]

SMILES: O=C(SCCCCCCSCCCC(F)(F)F)c1cccc(O)c1O [TBG096]
- abundance of Firmicutes (decreased by HFD) and Bacteroidota (increased by HFD) (gut microbiota; TBG096 20 mg/kg): reversed
- abundance of Ligilactobacillus (gut microbiota; TBG096 5 and 20 mg/kg): improved
- number of NeuN+ and BrdU+ neurons in the cerebral cortex (HFD-induced AD mice [1]): increased numbers
- number of newborn neurons in the hippocampus (HFD-induced AD mice [1]): elevated
- APP and phosphorylation Tau protein in the hippocampus (HFD-induced AD mice [2]; immunofluorescence): reduction
- Iba1, GFAP, INOS markers (activated microglia, astrocytes, M1 macrophages) in the hippocampus (HFD-induced AD mice [2]; vs HFD-only): significantly reduced
- number of mature neurons (NeuN) in the cerebral cortex (HFD-induced AD mice [2]; vs HFD-only group): increased numbers of mature neurons
- expression of the Wnt gene family (Wnt10b, Wnt5a, and Wnt1) [3]: enhancing the expression
